# Experimental data from patent US20120121509A1, “VITAL FLUOROCHROME CONJUGATES AND METHODS OF USE” (THE GENERAL HOSPITAL CORPORATION, priority 2009, published 2012).
# pEC50: −log10 of the molar value.
# Legend:
# [1] = cited from earlier work; for Abs (absorption): first figure of Abs/em; for em (emission): second figure of Abs/em
# plasmid DNA = assay: Relaxation assay: binding of GadoTO to plasmid DNA monitored by relaxometry (T1); settings: GadoTO 1 mM, plasmid DNA 0.025 to 0.3 ug/uL, Bruker minispec; 95% confidence interval 0.078-0.101; read-out: half-maximal concentration (EC50) from T1 values
# Method: Experimental Details of the Relaxation Assay: Gadolinium thiazole orange (GadoTO) at 1 mM was employed with increasing concentrations of plasmid DNA (DNA 0.025 to 0.3 ug/uL). Relaxation times were measured on a Bruker minispec at […].
# (§1) Results from the Relaxation and Fluorescence Assays: The design of vital fluorochrome conjugates must preserve the essential features of the vital fluorochrome upon which it is based. The verification that a putative vital fluorochrome conjugates (VF-Linker-Reporter) has the properties of the VF upon which its was based is shown in FIGS. 2A, 2B, 3 and 4 which show the results with the vital fluorochrome conjugates known as GadoTO. Since the reporter group of GadoTO is a paramagnetic gadolinium chelate, binding can be ascertained by changes in the water relaxation rates. […] Binding of small GadoTO to the larger DNA slows the molecular motion, increasing the R1 relaxivity and decreasing the solution T1.
# DNA = assay: Fluorescence assay: binding of GadoTO to DNA monitored by fluorescence; settings: GadoTO 2.35 uM, increasing DNA concentrations, emission 510-700 nm; 95% confidence interval 0.149-0.214; read-out: half-maximal concentration (EC50) from fluorescence values
# Method: Experimental Details of the Fluorescence Assay: GadoTO at 2.35 uM was employed with increasing concentrations of DNA. Absorption spectra were measured on a Varian Cary 50 Bio UV-Visible spectrophotometer. The absorbance at 511 nm was measured. Fluorescence emission spectra were recorded on a Varian Cary Eclipse fluorescence spectrophometer. Fluorescence intensities were measured between 510 and 700 nm and corrected, when necessary, for matched absorbances at 511 nm. Fluorescence intensities were plotted versus DNA concentrations.
# as §1
# Jurkat T cells [2] = assay: Dual wavelength FACS with Annexin V-APC, camptothecin-treated Jurkat T cells; type: cell-based
# Method: (§2) Experimental Details for the Dual Wavelength FACS and Single Channel FACS: Cell culture: All experiments described used Jurkat T cells (Clone E6-1, ATCC #TIB-152). Cells were grown in RPMI 1640 medium (ThermoFisher Scientific, Hampton, N.H.) with 10% fetal bovine serum (Valley Biomedical, Winchester, Va.), 1% L-Glutamine (Mediatech, Manassas, Va.), 1% Penycillin-Streptomycin (Mediatech, Manassas, Va.). Media was changed every two or three days. Cells were maintained at 37° C., 5% CO2. Flow cytometry experiments: Cells were treated with camptothecin (CPT, 24 hrs, 10 μM). After removal of the medium, cells were resuspended into 100 μL of binding buffer (10 mM HEPES, 140 mM NaCl, 2.5 mM CaCl2, 1% FBS). Cells were stained at 37° C. for 15 min with 1 μL Annexin-APC (Invitrogen) and 1 μL propidium iodide (BD Pharmingen) or 1 μL of GadoTO (0.1 mM stock solution in binding buffer). Cells were diluted with 200 μL of binding buffer and analyzed by flow cytometry (FACSCalibur, Becton Dickinson). Fluorescence from the APC fluorochrome was measured in FL4, PI in FL3, and GadoTO in FL1.
# Results from Dual Wavelength FACS: The exclusion of GadoTO from healthy cells and uptake by necrotic cells by FACS is shown in FIG. 3. […] GadoTO binding necrotic cells were of two intensities (Hi and Lo), indicating two subpopulations of necrotic cells.
# Jurkat T cells [3] = assay: Single channel FACS, GadoTO versus propidium iodide; type: cell-based
# Method: as §2, with “FL1. […]” for “FL1.”
# Jurkat cells = assay: In vitro T1 weighted MRI / FRI of packed cell phantoms of camptothecin treated Jurkat cells; type: cell-based; settings: for uptake by CPT treated cells by MRI: T1 weighted MRI, FRI and relaxometry, CPT treated versus non-CPT treated Jurkat cells
# Method: The interaction of GadoTO with necrotic cells is shown schematically in FIG. 5A. GadoTO is excluded by vital cells. Prolonged ischemia or a 48 hour exposure to CPT induces necrosis, which causes GadoTO to enter cells and intercalate with double stranded nuclear DNA. […] Effects on cellular T1 were confirmed by relaxometry studies using cell suspensions.
# [4] = system: necrotic cardiomyocytes of infarcted myocardium; assay: In vivo MR imaging of ischemia induced necrosis, left coronary artery ligation; settings: mouse
# Method: For in vivo MR studies, we employed a model of prolonged ischemia, obtained when the left coronary artery of a beating mouse heart was ligated for 18 hours. The ligation and procedure is similar to our previously described method (Sosnovik, D. E. et al., Magn. Reson. Med., 54:718-24, 2005) except the duration is for 18 hours. […] GadoTO was injected (18 hours post ligation) and imaged (21 h). […] Gd-DTPA washed in and out of damaged myocardium within 1 hour.
# infarcted myocardium = assay: MR imaging of post myocardial infarction phases (age of infarction); type: in vivo; settings: mouse
# Source text: An additional feature of the invention is an imaging method to determine the age of a myocardial infarction (MI), i.e., the time since the occlusion began. Patients can present with symptoms of variable intensity and duration that may or may indicate an infarction. Current techniques can define regions of non-functional myocardium, but cannot define the time of infarction. With developing (“young”) infarctions, treatments to limit or reverse the affected area are indicated, while with “old” infarctions such treatments are futile. In this method a vital fluorochrome conjugate is injected intravenously and MRI or PET or SPECT are used to measure the vital fluorochrome conjugates uptake in an infracted area.
# FIGS. 6A and 6B show an example of a beating mouse heart injected with GadoTO imaged during phase 2 (18 hours) (FIG. 6A) and phase 4 (8 days) (FIG. 6B) of the post MI reaction phases. […] GadoTO can thus be used to specifically image acutely necrotic myocardium/tissue.
compound,measurement,setting,value
CN1/C(=C/c2cc[n+](CCC[N+](C)(C)C)c3ccccc23)Oc2ccccc21 [YO-PRO],Abs (absorption),[1],491 nm
same,em (emission),[1],509 nm
Gadolinium thiazole orange [GadoTO],pEC50,plasmid DNA,4.05
same,pEC50,DNA,3.75
same,"binding to cells, dual wavelength FACS","Jurkat T cells [2]; Jurkat T cells after camptothecin (+CPT, 24 hrs, 10 μM), necrotic cells",cells bound both probes
same,"binding to cells, dual wavelength FACS","Jurkat T cells [2]; Jurkat T cells before camptothecin (-CPT), viable cells",failed to bind
same,"binding to cells, single channel FACS","Jurkat T cells [3]; Jurkat cells with CPT (+CPT), PI compared with GadoTO",two peaks (Lo and Hi) of highly fluorescent cells were seen
same,"binding to cells, single channel FACS",Jurkat T cells [3]; Jurkat cells without CPT (-CPT),cells failed to bind GadoTO
same,uptake by CPT treated cells by MRI,Jurkat cells,brighter than non-CPT treated cells
same,nuclear cell fluorescence emission,Jurkat cells; after intercalation with double stranded nuclear DNA of necrotic cells,533 nm
same,infarct on GRE image,"[4]; injected 18 hours post ligation, imaged 21 h, gradient echo",barely visible infarct
same,infarct on IR GRE image,"[4]; injected 18 hours post ligation, imaged 21 h, inversion recovery GRE","well-defined, bright infarct"
same,uptake in infarcted myocardium,infarcted myocardium; phase 2 (18 hours) post MI,Profound uptake
same,uptake in infarcted myocardium,"infarcted myocardium; phase 4, injected 8 days after myocardial infarction",no uptake
CN1/C(=C/c2cc[n+](CCC[N+](C)(C)C)c3ccccc23)Sc2ccccc21 [TO-PRO 1],Abs (absorption),[1],515 nm
same,em (emission),[1],531 nm
O=C([O-])CN(CCN(CC(=O)[O-])CC(=O)O)CCN(CC(=O)[O-])CC(=O)O.[Gd+3] [Gd-DTPA],uptake by CPT treated cells by MRI,Jurkat cells,did not induce the uptake
same,time to wash in and out of damaged myocardium,[4]; damaged myocardium,≤ 1 h
CN(C)CCCN1C=C\C(=C/C=C/C=C/c2sc3ccccc3[n+]2C)c2ccccc21.I.[I-] [TO-PRO 5],Abs (absorption),[1],745 nm
same,em (emission),[1],770 nm
CCCN(CCCN(C)C)C1=C/C(=C\c2sc3ccccc3[n+]2C)c2ccccc2N1c1ccccc1 [Sybr Green],Abs (absorption),[1],490 nm
same,em (emission),[1],520 nm
C[n+]1c(/C=C/C=C2\C=CN(CCC[N+](C)(C)C)c3ccccc32)sc2ccccc21 [TO-PRO 3],Abs (absorption),[1],612 nm
same,em (emission),[1],631 nm
CN1/C(=C/C=C/C2C=CN(CCC[N+](C)(C)C)c3ccccc32)Oc2ccccc21 (centres unmarked) [YO-PRO 3],Abs (absorption),[1],612 nm
same,em (emission),[1],631 nm
